According to ChEMBL document CHEMBL1146965, “Pyridone derivatives as potent and selective VLA-4 integrin antagonists” (Bioorg Med Chem Lett, 2006):
pKi: −log10 of the molar value.

Key:
Assay type in all cases: cell-based
Integrin alpha-4/beta-1 = Integrin alpha-4/beta-1 (Homo sapiens, UniProt P05556+P13612); assay: Binding affinity to integrin alpha-4-beta-1 expressed in jurkat J6 cells
Integrin alpha-V/beta-3 = Integrin alpha-V/beta-3 (Homo sapiens, UniProt P05106+P06756); assay: Binding affinity to integrin alphavbeta3 expressed in jurkat J6 cells
Integrin alpha-5/beta-1 = Integrin alpha-5/beta-1 (Homo sapiens, UniProt P05556+P08648); assay: Binding affinity to integrin alpha-5-beta-1 expressed in jurkat J6 cells
Integrin alpha-V/beta-6 = Integrin alpha-V/beta-6 (Homo sapiens, UniProt P06756+P18564); assay: Binding affinity to integrin alpha-v-beta-6 expressed in jurkat J6 cells
Integrin alpha-4/beta-7 = target: T1, Integrin alpha-4/beta-7 (Homo sapiens, UniProt P13612+P26010); assay: Binding affinity to integrin alpha-4-beta-7 expressed in jurkat J6 cells
T1 sequence (P13612 whole entry): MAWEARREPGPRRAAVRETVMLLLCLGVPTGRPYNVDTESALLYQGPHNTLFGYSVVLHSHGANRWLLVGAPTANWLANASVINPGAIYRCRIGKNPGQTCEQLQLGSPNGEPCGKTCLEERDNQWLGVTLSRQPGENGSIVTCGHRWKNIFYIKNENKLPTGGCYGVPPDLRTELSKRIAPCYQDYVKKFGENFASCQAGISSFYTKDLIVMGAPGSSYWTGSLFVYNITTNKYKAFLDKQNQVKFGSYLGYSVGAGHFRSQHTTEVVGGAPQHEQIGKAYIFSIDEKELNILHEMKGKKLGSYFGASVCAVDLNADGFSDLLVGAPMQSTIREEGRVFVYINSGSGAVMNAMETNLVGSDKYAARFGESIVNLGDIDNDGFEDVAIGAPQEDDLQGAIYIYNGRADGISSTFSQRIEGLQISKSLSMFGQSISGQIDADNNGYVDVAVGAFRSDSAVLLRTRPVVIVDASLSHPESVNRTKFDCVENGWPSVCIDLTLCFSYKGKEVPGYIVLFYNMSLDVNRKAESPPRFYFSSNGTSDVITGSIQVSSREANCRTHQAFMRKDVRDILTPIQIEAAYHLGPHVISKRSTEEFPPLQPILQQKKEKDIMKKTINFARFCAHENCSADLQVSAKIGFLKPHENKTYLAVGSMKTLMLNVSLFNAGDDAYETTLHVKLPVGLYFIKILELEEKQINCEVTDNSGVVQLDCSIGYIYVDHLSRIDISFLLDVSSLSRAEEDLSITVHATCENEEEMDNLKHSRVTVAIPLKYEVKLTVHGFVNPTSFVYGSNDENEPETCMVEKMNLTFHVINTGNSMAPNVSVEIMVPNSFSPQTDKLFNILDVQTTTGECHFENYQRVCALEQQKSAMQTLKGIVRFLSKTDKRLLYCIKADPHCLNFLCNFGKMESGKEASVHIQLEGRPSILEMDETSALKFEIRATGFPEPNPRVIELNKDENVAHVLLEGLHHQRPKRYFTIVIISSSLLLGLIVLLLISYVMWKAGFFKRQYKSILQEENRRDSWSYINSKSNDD
T1 sequence (P26010 whole entry): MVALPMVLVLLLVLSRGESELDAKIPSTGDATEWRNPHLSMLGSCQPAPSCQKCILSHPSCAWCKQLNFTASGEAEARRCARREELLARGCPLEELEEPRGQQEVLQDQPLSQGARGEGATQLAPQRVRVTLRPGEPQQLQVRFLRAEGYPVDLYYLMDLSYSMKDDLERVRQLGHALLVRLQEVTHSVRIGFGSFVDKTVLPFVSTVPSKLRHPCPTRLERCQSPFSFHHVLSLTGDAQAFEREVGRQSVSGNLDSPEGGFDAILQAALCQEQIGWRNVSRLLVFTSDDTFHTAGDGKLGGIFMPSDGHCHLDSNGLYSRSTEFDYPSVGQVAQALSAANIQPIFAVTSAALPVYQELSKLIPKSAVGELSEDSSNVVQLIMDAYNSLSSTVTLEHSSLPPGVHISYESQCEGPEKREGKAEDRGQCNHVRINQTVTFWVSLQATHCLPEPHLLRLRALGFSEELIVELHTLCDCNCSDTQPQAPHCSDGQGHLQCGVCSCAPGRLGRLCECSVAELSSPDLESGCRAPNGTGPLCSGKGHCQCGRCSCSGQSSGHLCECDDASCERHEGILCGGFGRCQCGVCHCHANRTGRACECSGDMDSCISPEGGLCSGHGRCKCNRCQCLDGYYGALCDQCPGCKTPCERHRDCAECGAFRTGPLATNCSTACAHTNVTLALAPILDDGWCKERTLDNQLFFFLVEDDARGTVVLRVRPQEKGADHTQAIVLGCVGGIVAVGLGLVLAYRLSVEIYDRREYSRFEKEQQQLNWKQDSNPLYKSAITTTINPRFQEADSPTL

[1] = target: Integrin alpha-IIb/beta-3 (Homo sapiens, UniProt P05106+P08514); assay: Binding affinity to integrin […] expressed in jurkat J6 cells
Chain of Integrin alpha-IIb/beta-3 (P05106 27-788 limits assumed): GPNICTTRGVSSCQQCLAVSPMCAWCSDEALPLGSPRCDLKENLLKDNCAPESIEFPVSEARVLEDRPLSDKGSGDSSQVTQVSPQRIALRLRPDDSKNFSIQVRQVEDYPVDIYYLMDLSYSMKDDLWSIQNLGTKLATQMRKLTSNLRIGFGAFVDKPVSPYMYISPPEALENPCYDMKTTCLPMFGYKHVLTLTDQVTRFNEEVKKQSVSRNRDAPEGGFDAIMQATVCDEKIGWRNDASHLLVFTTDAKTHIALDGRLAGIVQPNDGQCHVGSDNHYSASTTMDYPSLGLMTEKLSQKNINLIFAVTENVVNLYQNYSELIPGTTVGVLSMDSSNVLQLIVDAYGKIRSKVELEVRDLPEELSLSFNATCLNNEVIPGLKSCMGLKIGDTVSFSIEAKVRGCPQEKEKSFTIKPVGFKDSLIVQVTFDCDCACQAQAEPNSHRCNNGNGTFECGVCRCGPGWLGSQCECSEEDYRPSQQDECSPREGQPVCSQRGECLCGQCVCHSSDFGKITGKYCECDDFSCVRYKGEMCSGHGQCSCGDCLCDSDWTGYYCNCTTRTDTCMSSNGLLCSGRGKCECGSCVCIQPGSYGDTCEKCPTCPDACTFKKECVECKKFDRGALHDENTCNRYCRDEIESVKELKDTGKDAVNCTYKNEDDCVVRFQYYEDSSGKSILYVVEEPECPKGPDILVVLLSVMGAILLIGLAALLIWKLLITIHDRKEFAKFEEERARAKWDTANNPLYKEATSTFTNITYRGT
Chain of Integrin alpha-IIb/beta-3 (P08514 32-887 limits assumed): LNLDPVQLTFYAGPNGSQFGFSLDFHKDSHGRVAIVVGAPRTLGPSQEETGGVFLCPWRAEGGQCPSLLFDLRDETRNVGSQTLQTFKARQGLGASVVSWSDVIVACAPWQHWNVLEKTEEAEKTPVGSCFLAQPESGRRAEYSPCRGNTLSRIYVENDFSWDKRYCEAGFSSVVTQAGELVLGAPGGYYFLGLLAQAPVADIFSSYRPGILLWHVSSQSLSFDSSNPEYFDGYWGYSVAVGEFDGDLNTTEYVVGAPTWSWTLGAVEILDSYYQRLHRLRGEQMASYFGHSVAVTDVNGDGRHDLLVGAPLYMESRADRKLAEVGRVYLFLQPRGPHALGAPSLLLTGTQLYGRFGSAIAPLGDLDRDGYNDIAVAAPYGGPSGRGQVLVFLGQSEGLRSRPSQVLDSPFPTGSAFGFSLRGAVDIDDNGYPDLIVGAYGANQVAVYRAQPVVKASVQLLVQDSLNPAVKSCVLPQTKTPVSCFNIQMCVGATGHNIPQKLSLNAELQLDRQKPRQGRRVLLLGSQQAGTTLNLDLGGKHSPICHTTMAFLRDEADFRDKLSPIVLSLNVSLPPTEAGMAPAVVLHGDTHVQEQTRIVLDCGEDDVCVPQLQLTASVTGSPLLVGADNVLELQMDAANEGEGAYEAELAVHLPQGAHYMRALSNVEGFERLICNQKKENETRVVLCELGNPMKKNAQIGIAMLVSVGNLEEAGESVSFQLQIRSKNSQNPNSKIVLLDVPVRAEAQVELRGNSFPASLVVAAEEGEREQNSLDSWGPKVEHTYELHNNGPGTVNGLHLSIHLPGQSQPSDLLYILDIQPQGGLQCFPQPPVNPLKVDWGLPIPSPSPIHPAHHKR
Chain of Integrin alpha-IIb/beta-3 (P08514 891-1039 limits assumed): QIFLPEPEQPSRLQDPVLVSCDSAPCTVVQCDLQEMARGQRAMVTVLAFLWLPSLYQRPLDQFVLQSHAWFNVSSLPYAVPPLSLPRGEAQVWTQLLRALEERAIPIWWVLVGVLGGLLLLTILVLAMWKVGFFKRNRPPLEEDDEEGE

Chain of Integrin alpha-4/beta-1 (P05556 whole entry, one chain of several): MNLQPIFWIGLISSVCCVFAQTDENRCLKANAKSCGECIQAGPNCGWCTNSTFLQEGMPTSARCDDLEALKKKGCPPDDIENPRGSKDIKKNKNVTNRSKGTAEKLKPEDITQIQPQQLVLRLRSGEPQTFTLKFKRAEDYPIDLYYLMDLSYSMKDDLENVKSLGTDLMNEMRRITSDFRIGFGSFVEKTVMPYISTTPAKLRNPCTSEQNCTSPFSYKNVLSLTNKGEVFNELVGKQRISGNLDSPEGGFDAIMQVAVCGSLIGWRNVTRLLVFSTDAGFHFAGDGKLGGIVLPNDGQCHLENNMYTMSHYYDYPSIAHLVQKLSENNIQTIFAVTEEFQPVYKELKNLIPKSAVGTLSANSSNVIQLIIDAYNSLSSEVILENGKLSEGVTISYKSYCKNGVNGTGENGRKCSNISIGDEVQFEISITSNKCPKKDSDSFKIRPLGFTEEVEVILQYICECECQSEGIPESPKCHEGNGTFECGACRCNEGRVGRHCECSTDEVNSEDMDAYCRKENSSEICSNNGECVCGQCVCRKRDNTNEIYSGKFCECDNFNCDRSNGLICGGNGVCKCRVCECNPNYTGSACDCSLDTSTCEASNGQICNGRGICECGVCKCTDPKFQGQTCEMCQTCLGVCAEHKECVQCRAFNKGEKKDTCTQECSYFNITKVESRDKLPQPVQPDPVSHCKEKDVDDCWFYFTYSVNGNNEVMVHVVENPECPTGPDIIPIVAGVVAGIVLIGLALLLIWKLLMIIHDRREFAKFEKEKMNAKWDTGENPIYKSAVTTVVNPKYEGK
Chain of Integrin alpha-V/beta-6 (P06756 31-889 limits assumed): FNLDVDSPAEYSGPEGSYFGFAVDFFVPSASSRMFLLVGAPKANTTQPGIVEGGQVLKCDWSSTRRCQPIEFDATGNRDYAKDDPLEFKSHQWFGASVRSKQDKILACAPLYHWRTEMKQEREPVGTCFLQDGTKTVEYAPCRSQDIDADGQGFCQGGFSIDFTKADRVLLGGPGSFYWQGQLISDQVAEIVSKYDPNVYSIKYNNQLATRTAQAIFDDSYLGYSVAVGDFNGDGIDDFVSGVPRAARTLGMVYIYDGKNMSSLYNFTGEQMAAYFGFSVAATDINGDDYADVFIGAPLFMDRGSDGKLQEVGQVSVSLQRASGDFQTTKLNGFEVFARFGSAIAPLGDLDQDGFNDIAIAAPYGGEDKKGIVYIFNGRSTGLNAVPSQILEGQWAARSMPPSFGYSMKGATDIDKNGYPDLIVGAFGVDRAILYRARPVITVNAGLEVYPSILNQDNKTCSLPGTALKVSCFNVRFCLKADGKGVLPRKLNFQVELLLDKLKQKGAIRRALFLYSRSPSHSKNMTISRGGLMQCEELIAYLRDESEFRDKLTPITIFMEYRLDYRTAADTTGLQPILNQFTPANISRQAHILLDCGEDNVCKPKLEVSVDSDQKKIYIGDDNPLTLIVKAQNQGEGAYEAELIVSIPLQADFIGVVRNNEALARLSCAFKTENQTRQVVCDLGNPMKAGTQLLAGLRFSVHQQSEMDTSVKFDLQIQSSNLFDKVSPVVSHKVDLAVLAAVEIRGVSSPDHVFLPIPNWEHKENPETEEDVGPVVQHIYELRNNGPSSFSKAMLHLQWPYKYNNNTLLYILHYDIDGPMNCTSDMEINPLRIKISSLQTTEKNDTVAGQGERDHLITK
Chain of Integrin alpha-V/beta-6 (P06756 891-1048 limits assumed): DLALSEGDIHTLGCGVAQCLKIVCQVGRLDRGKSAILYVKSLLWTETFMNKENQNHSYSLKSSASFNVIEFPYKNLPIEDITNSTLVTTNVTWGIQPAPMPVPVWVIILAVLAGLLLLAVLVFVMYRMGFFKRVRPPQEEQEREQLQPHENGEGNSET
Chain of Integrin alpha-V/beta-6 (P18564 22-788 limits assumed): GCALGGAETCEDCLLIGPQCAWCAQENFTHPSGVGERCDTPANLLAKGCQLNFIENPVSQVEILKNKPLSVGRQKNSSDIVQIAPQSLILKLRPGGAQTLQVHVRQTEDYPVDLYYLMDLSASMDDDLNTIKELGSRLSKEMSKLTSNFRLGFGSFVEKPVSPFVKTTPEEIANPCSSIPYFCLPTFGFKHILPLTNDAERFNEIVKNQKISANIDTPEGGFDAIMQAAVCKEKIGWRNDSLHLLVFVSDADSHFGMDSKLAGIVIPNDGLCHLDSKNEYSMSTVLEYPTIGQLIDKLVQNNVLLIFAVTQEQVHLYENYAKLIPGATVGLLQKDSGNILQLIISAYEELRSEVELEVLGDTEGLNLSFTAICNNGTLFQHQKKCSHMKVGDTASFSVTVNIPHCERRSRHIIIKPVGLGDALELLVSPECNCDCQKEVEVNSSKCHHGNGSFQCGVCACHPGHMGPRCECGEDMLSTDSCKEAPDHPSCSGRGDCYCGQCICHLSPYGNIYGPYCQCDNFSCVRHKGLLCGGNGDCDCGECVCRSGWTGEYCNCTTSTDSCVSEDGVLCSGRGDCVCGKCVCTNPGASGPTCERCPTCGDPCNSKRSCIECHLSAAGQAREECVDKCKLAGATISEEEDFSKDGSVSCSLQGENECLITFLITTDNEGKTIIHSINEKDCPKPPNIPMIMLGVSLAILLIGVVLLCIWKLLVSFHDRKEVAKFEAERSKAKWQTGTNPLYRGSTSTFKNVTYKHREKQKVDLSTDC
Chain of Integrin alpha-V/beta-3 (P05106 27-788 limits assumed): as the sequence (P05106 27-788 limits assumed) above
Chain of Integrin alpha-V/beta-3 (P06756 31-889 partner limits assumed): as the sequence (P06756 31-889 limits assumed) above
Chain of Integrin alpha-V/beta-3 (P06756 891-1048 partner limits assumed): as the sequence (P06756 891-1048 limits assumed) above

Compound | pKi (Integrin alpha-4/beta-1) | also measured
Cc1ccccc1NC(=O)Nc1ccc(-c2cccn(-c3ccc(CCC(=O)O)cc3)c2=O)cc1 | < 6.00 | 
Cc1ccccc1NC(=O)Nc1ccc(-c2cccn(Cc3ccc(C(=O)O)cc3)c2=O)cc1 | 6.50 | 
Cc1ccccc1NC(=O)Nc1ccc(-c2cnn(Cc3ccc(CCC(=O)O)cc3)c2)cc1 | < 6.00 | 
Cc1ccccc1NC(=O)Nc1ccc(-c2cccn(Cc3ccc(CC(=O)O)cc3)c2=O)cc1 | 6.60 | 
Cc1ccccc1NC(=O)Nc1ccc(-c2cccn(Cc3ccccc3CCC(=O)O)c2=O)cc1 | 6.40 | 
COc1cc(-c2cccn(Cc3ccc(CCC(=O)O)cc3)c2=O)ccc1NC(=O)Nc1ccccc1C | 9.30 | 
COc1cc(CC(=O)Nc2ccc([C@H](C)CC(=O)O)cc2)ccc1NC(=O)Nc1ccccc1C | 9.10 | 
Cc1ccccc1NC(=O)Nc1ccc(-c2cccn(Cc3ccc(CCC(=O)O)cc3)c2=O)cc1 | 8.70 | pKi (Integrin alpha-V/beta-3): < 5.00; pKi (Integrin alpha-5/beta-1): < 5.00; pKi (Integrin alpha-V/beta-6): < 5.00; pKi (Integrin alpha-4/beta-7): < 5.00; pKi [1]: < 5.00
Cc1ccccc1NC(=O)Nc1ccc(-c2cccn(Cc3cccc(CCC(=O)O)c3)c2=O)cc1 | 8.40 | 
Cc1ccccc1NC(=O)Nc1ccc(-c2ccn(Cc3ccc(CCC(=O)O)cc3)n2)cc1 | 6.60 | 
Cc1ccccc1NC(=O)Nc1ccc(CC(=O)Nc2ccc([C@H](C)CC(=O)O)cc2)cc1 | 7.20 | 
Cc1ccccc1NC(=O)Nc1ccc(-c2ncn(Cc3ccc(CCC(=O)O)cc3)n2)cc1 | 6.30 | 
Cc1ccccc1NC(=O)Nc1ccc(-c2cn(Cc3ccc(CCC(=O)O)cc3)cn2)cc1 | < 4.00 | 
COc1cc(-c2ccn(Cc3ccc(CCC(=O)O)cc3)n2)ccc1NC(=O)Nc1ccccc1C | 7.60 | 
COc1cc(-c2nnc(Cc3ccc(CCC(=O)O)cc3)o2)ccc1NC(=O)Nc1ccccc1C | < 6.00 | 
